Test results from ChEMBL document CHEMBL1201862, “PubChem BioAssay data set” (2004).
Activity calls are given as the source filed them.

Legend:
Nonstructural protein 1 = Nonstructural protein 1 (Influenza A virus, UniProt Q194T2); format: functional, Influenza A virus (A/California/07/2009(H1N1))
[1] = biological target: G-protein coupled receptor 35 (Homo sapiens, UniProt Q9HC97); experiment: inhibition of zaprinast-stimulated GPR35 beta-arrestin translocation – imaging, U2OS, beta-arrestin-GFP, zaprinast agonist, primary screen (AID 2058); format: functional;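 note: antagonist potency meaning inhibition of agonist-induced arrestin redistribution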
G-protein coupled receptor 35, sequence (Q9HC97 whole entry): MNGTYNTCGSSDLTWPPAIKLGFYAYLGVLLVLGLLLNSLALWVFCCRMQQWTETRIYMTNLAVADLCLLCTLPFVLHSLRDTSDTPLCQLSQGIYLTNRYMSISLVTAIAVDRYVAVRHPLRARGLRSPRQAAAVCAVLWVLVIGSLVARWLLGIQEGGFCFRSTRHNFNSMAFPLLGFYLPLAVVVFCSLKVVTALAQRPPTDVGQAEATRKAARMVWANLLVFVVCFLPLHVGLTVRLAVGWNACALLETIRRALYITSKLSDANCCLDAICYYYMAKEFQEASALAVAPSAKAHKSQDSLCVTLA

[2] = luciferase reporter signal suppression in cells – H4 neuroglioma cells, luminescence, dose response (AID 1990); format: functional, cell-based
[3] = Luminescence Cell-Based Dose Response HTS to Identify Inhibitors of 5'UTR Stem-Loop Driven Prion Protein mRNA Translation in H4 Neuroglioblastoma Cells. [Related pubchem assays: 1827 (Project Summary), 1813 (Primary HTS)]; format: functional
Beta-galactosidase = Beta-galactosidase (Escherichia coli, UniProt Q8VNN2); experiment: PubChem AID 485352; format: functional
Beta-galactosidase, sequence (Q8VNN2 whole entry): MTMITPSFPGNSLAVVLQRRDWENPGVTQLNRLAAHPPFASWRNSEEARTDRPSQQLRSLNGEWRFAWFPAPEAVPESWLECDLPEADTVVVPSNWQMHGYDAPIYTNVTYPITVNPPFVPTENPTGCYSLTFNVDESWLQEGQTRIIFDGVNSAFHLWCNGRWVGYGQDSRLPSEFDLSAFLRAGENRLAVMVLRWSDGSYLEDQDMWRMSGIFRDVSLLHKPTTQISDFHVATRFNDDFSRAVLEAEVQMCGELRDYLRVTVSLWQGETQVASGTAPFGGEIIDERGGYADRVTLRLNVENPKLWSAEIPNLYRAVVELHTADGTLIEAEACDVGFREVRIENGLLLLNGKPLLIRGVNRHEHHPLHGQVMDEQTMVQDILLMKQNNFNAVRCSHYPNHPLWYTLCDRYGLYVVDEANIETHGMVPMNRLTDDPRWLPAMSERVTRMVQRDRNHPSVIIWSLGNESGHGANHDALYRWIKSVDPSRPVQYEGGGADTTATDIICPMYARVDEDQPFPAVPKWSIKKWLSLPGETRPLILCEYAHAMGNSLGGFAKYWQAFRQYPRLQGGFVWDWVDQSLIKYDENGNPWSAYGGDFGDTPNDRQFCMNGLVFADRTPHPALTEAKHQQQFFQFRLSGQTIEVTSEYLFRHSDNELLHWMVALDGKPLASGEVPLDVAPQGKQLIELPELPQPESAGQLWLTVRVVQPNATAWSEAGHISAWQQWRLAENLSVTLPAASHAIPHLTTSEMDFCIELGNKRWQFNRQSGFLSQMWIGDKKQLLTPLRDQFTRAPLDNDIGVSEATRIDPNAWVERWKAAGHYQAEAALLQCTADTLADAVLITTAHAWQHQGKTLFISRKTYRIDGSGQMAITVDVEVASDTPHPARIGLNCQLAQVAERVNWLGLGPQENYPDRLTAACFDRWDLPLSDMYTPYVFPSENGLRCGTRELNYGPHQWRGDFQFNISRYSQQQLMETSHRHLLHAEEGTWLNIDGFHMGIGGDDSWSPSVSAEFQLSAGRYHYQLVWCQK

[4] = alpha-synuclein stem-loop luciferase translation blockers – H4 neuroglioma cells, luminescence, confirmation (AID 1988); format: functional, cell-based
Streptococcus = experiment: Luminescence Microorganism-Based Dose Response Follow up to Identify Compounds Cytotoxic to Streptococcus. [Related pubchem assays: 1677 (Project Summary), 1915, 1914, 1902 (Retest at Dose), 1900 (Counter Screen), 1662 (Primary HTS)]; format: functional, organism-based
[5] = biological target: T1, Type-1 angiotensin II receptor (Homo sapiens, UniProt P30556); experiment: antagonism of angiotensin II type 1 receptor – cell-based, uHTS hits, selectivity assay for APJ receptor antagonist project, dose response (AID 463214); format: functional;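 note: antagonist potency against angiotensin II stimulated AT1 response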
T1 sequence (P30556 whole entry): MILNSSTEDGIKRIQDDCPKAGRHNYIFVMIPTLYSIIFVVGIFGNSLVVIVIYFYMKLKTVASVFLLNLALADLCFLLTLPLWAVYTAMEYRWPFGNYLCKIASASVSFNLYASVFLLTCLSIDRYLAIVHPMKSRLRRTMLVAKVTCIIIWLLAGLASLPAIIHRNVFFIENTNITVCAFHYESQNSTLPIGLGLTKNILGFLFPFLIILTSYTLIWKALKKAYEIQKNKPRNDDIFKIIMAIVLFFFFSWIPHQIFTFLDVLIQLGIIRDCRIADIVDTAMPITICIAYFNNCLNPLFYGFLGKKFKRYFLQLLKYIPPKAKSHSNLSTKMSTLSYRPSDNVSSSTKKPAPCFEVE

[6] = biological target: T2, High affinity choline transporter 1 (Homo sapiens, UniProt Q9GZV3); experiment: human choline transporter blockers, potency – cell-based, 5-point CRC, membrane potential dye, dose response (AID 504840); format: functional
T2 sequence (Q9GZV3 whole entry): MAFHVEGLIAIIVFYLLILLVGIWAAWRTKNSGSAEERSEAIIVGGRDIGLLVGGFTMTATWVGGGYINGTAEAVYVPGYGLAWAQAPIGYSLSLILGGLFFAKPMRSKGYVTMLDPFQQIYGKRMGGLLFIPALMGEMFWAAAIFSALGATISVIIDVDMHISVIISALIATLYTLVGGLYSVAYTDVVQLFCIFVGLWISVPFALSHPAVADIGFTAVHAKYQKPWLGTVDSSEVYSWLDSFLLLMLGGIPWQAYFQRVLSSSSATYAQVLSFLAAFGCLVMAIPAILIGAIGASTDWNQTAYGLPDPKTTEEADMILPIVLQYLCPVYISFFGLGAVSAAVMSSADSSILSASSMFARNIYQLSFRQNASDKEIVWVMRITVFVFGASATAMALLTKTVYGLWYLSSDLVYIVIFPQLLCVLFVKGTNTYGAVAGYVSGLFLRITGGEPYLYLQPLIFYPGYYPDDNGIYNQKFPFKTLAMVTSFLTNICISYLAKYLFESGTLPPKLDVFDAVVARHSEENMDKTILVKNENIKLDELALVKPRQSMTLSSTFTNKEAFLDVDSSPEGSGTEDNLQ

Beta Lactamase = Beta Lactamase (Pseudomonas aeruginosa, UniProt Q932Y6); experiment: BLA reporter interference, concentration series – BLA reporter cells, FRET fluorescence, artefact control for TLR9-MyD88 binding inhibitor project, dose response (AID 588341); format: cell-based;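 note: cell based assay in CHO-K1 cells stably expressing beta-lactamase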
Beta Lactamase, sequence (Q932Y6 whole entry): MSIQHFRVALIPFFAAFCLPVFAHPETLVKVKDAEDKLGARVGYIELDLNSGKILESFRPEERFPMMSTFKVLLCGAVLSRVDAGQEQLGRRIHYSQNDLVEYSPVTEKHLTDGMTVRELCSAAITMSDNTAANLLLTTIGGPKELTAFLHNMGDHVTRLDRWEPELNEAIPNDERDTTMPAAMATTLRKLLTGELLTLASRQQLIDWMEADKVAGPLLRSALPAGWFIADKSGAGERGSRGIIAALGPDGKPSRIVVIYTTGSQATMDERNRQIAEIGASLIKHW

INS1 = experiment: INS-1E survival protection against cytokine death – cell-based, luminescence, retest, dose response (AID 449756); format: functional; settings: Rattus norvegicus;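 note: cell death triggered by IL-1 beta plus TNF-alpha plus IFN-gamma mixture; protective hits raise ATP signal compared with cytokine alone wells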
Melanocortin receptor 4 = Melanocortin receptor 4 (Homo sapiens, UniProt P32245); experiment: inhibitors of MC4R cAMP signaling – cell-based, TR-FRET, biased antagonists, dose response (AID 602298); format: functional;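 note: antagonist potency against agonist-stimulated cAMP production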
Melanocortin receptor 4, sequence (P32245 whole entry): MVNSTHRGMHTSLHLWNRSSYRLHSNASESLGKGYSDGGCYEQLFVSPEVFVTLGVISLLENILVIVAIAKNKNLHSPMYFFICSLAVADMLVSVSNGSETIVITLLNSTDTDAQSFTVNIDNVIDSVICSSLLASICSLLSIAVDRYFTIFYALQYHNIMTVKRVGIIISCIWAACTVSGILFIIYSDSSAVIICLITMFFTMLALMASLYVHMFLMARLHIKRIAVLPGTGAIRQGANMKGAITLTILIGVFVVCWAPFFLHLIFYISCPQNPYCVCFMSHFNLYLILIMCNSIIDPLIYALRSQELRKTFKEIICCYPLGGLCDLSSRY

[7] = general cell-killing toxicity readout – plate reader, dry powder samples, cytotoxicity control for PAX8 inhibitor project, dose response (AID 743021); format: functional, cell-based
[8] = biological target: T3, RNA-binding protein pos-1 (Caenorhabditis elegans, UniProt G5EF15); experiment: disruptors of C. elegans POS-1 RNA interaction – biochemical, fluorescence polarization, dose response (AID 1964);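 note: purified POS-1 fused to maltose binding protein made in E. coli; potency of compounds blocking POS-1 binding to fluorescent RNA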
T3 sequence (G5EF15 whole entry): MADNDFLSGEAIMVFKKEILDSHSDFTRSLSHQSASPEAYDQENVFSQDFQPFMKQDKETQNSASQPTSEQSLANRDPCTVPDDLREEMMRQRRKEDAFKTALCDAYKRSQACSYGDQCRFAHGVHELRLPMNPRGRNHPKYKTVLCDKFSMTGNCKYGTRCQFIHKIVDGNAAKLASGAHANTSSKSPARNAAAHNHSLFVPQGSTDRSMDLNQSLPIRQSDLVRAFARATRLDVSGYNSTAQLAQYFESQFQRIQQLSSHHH

[9] = biological target: T4, Zinc finger protein mex-5 (Caenorhabditis elegans, UniProt Q9XUB2); experiment: potency of MEX-5 RNA-binding blockers – biochemical, C. elegans, fluorescence polarization, dose response (AID 1960)
T4 sequence (Q9XUB2 whole entry): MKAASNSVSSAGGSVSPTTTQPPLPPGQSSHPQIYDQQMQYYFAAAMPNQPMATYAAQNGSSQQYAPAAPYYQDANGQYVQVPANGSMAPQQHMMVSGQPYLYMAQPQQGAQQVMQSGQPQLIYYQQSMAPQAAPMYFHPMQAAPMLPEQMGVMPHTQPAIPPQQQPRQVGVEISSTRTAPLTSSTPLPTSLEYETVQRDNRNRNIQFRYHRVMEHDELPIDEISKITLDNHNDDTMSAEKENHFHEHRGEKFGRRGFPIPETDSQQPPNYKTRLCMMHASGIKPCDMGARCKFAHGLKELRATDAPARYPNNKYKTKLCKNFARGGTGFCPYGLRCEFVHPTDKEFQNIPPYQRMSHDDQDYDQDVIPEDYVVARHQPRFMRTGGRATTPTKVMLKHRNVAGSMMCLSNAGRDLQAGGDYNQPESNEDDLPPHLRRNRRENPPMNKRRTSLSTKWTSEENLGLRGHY

Nonstructural protein 1, sequence (Q194T2 whole entry): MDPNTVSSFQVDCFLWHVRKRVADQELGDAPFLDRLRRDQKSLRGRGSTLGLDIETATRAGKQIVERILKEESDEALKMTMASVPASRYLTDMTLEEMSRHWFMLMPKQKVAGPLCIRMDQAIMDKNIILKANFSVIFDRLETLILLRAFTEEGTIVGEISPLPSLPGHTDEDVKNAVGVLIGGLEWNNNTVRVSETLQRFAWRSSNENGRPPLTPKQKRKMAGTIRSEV

CC(=O)c1cccc2c1N=C(c1[nH]c3ccccc3c1O)C2=O
IC50 (Nonstructural protein 1): 13.9 µM (active)

CCC1CCCCN1S(=O)(=O)c1ccc(NC(=O)c2nc(S(C)(=O)=O)ncc2Cl)cc1 (stereo not given)
IC50 [1]: 3.23 µM (active)
EC50 [2]: 11.2 µM (active)
EC50 [3]: 11.8 µM (active)
EC50 (Beta-galactosidase): > 40 µM (inactive)
EC50 [4]: 9.69 µM (active)
EC50 (Streptococcus): 16.5 µM (active)
IC50 [5]: 5.9 µM (active)
IC50 [6]: 15.8 µM (active)
IC50 (Beta Lactamase): 11.1 µM (inactive)
AC50 (INS1): 5.24 µM (active)
IC50 (Melanocortin receptor 4): 1.17 µM (active)
AC50 [7]: 20.8 µM (active)

CCCC[n+]1ccn(C2=C([N-]S(=O)(=O)c3ccc(Cl)cc3)C(=O)c3ccccc3C2=O)c1
EC50 [8]: > 300 µM (inconclusive)
EC50 [9]: 85.9 µM (inconclusive)
